According to publication PMC9508196 (Scientific Reports, 2022):
Non-standard residues stand in square brackets, D forms with d. Residues, ends and D or L forms follow the SMILES beside them. No end group written: not given here.

Experiments:
[1] = tested on: A. baumannii D-10.1–1 (MDR); type: cell-based, Acinetobacter baumannii; conditions: clinical isolate D-10.1–1 (MDR), urine
Text: (§1) Ten strains of both Gram-positive and -negative bacteria, including Staphylococcus aureus ATCC 25,923, S. epidermidis ATCC 12,228, Bacillus cereus ATCC 11,778, Listeria monocytogenes 10403S, Salmonella typhimurium ATCC 13,311, Pseudomonas aeruginosa ATCC 27,853, Shigella sonnei ATCC 11,060, A. baumannii ATCC 19,606, Escherichia coli ATCC 25,922 and E. coli O157:H7, were used in this study. Eight clinical isolates of multidrug-resistant (MDR) and extensively drug-resistant (XDR) A. baumannii, isolated from human (blood, sputum, respiratory sample, sterile site sample and urine), were kindly provided by Asst. Prof. Dr. Sakawrat Kanthawong (Faculty of Medicine, Khon Kaen University, Thailand) (Table S1). All bacterial strains, excluding L. monocytogenes 10403S and E. coli, were cultured in tryptic soy broth (TSB). L. monocytogenes was grown in TSB supplemented with 0.6% yeast extract (TSB-YE), and E. coli was cultured in Luria broth (LB). All of bacteria were cultured at 37 °C with continuous shaking at 220 rpm.
(§2) Minimum inhibitory concentration (MIC) of peptides and antibiotics was assessed by a modified version of the broth microdilution method from the Clinical and Laboratory Standards Institute (CLSI) as previously described. In brief, mid-log phase growths of microbial strains were cultured in Müeller-Hinton broth (MHB) with an initial inoculum of 2–8 × 10^5 CFU/mL. Bacteria suspensions were incubated in sterile 96-well plates with test agents at desired concentrations. […] Minimum bactericidal concentration (MBC) determination was performed using a modified version of the colony count assay. In brief, fifty µl of all non-turbid wells from MIC experiments were spread on agar plates. The MBC value was defined as the lowest concentration of peptides with no colony growth on the plate. All assays were performed in triplicate.

[2] = tested on: A. baumannii D-10.1–2 (MDR); type: cell-based, Acinetobacter baumannii; conditions: clinical isolate D-10.1–2 (MDR), urine
Text: as §1, §2

[3] = tested on: A. baumannii ATCC 19,606; assay: Peptide sensitivity to physiological salts (MIC/MBC); type: cell-based, Acinetobacter baumannii; conditions: for MBC in the presence of FeCl3 / MIC in the presence of FeCl3: MHB with 4 µM FeCl3; for MBC in the presence of NH4Cl / MIC in the presence of NH4Cl: MHB with 6 µM NH4Cl; for MBC in the presence of ZnCl2 / MIC in the presence of ZnCl2: MHB with 8 µM ZnCl2; for MBC in the presence of MgCl2 / MIC in the presence of MgCl2: MHB with 1 mM MgCl2; for MBC in the presence of KCl / MIC in the presence of KCl: MHB with 4.5 mM KCl; for MBC in the presence of NaCl / MIC in the presence of NaCl: MHB with 150 mM NaCl; for MBC in the presence of CaCl2 / MIC in the presence of CaCl2: MHB with […] CaCl2; for MBC, control / MIC, control: control: absence of serum salts, MHB
Procedure: as §2
(§3) The MIC and MBC assays were performed after peptide was exposed to various conditions, including proteolytic enzymes, serum salts and human plasma. […] To determine peptide sensitivity to physiological salts, approximately 5 × 10^5 CFU/ml of A. baumannii ATCC 19,606 was mixed with the MHB containing different physiological salts at final concentration as follows: 150 mM NaCl, 4.5 mM KCl, 1 mM MgCl2, 6 µM NH4Cl, 8 µM ZnCl2, 4 µM FeCl3 and […]. After treatment, the MIC was evaluated as described in 2.4. To test the stability of peptides in human plasma, peptide was mixed with pure human plasma, and the mixture was incubated for 1 h at 37 °C. Then, the mixture was two-fold serially diluted with sterile MHB. The peptides at final concentrations of 0.98 to 250 µg/ml were incubated with an equal volume of bacterial suspension at 37 °C for 24 h. MIC values were determined as described in 2.4.

[4] = tested on: A. baumannii ATCC 19,606; assay: Peptide stability to proteolytic enzymes (MIC/MBC after pre-incubation); type: cell-based, Acinetobacter baumannii; conditions: for MBC, control / MIC, control: control: absence of human plasma and proteolytic enzymes, A. baumannii ATCC 19,606; for MBC in the presence of pepsin / MIC in the presence of pepsin: peptide pre-incubated with 1 mg/ml pepsin
Procedure: as §2, §3

[5] = tested on: A. baumannii ATCC 19,606; assay: Peptide stability in human plasma (MIC/MBC after pre-incubation); type: cell-based, Acinetobacter baumannii; conditions: peptide mixed with pure human plasma, 1 h, 37 °C, then two-fold diluted in MHB, bacteria 24 h
Procedure: as §2, §3

[6] = tested on: Listeria monocytogenes 10403S; type: cell-based; conditions: L. monocytogenes 10403S; broth microdilution, MHB, 24 h, 37 °C, triplicate
Text: as §1, §2

[7] = tested on: Escherichia coli ATCC 25,922; type: cell-based; conditions: E. coli ATCC 25,922; broth microdilution, MHB, 24 h, 37 °C, triplicate
Text: as §1, §2

[8] = tested on: Staphylococcus epidermidis ATCC 12,228; type: cell-based; conditions: S. epidermidis ATCC 12,228; broth microdilution, MHB, 24 h, 37 °C, triplicate
Text: as §1, §2

[9] = tested on: Salmonella Typhimurium ATCC 13,311; type: cell-based; conditions: S. Typhimurium ATCC 13,311; broth microdilution, MHB, 24 h, 37 °C, triplicate
Text: as §1, §2

[10] = tested on: Escherichia coli O157:H7 MT strain; type: cell-based; conditions: E. coli O157:H7 MT strain; broth microdilution, MHB, 24 h, 37 °C, triplicate
Text: as §1, §2

[11] = tested on: Pseudomonas aeruginosa ATCC 27,853; type: cell-based; conditions: P. aeruginosa ATCC 27,853; broth microdilution, MHB, 24 h, 37 °C, triplicate
Text: as §1, §2

[12] = tested on: Bacillus cereus ATCC 11,778; type: cell-based; conditions: B. cereus ATCC 11,778; broth microdilution, MHB, 24 h, 37 °C, triplicate
Text: as §1, §2

[13] = tested on: Staphylococcus aureus ATCC 25,923; type: cell-based; conditions: S. aureus ATCC 25,923; broth microdilution, MHB, 24 h, 37 °C, triplicate
Text: as §1, §2

[14] = tested on: Shigella sonnei ATCC 11,060; type: cell-based; conditions: S. sonnei ATCC 11,060; broth microdilution, MHB, 24 h, 37 °C, triplicate
Text: as §1, §2

[15] = peptide pre-incubated with 1 mg/ml proteinase K, 37 °C, 1 h
[16] = peptide pre-incubated with 1 mg/ml trypsin, 37 °C, 1 h

Compound	MBC [1]	MIC [1]	MBC [2]	MIC [2]	MBC in the presence of FeCl3 [3]	MIC in the presence of FeCl3 [3]	MBC in the presence of NH4Cl [3]	MIC in the presence of NH4Cl [3]	MBC in the presence of ZnCl2 [3]	MIC in the presence of ZnCl2 [3]	MBC in the presence of MgCl2 [3]	MIC in the presence of MgCl2 [3]	MBC in the presence of KCl [3]	MIC in the presence of KCl [3]	MBC in the presence of NaCl [3]	MIC in the presence of NaCl [3]	MBC in the presence of CaCl2 [3]	MIC in the presence of CaCl2 [3]	MBC, control [3]	MIC, control [3]	further results
CC[C@@H](C)[C@@H](NC(=O)[C@@H](CCCCN)NC(=O)CNC(=O)[C@@H](C)NC(=O)[C@H](NC(=O)[C@@H](CCCCN)NC(=O)[C@@H](CCCCN)NC(=O)[C@H](NC(=O)[C@@H](CCCNC(=N)N)NC(=O)[C@@H](CCCNC(=N)N)NC(=O)[C@@H](Cc1ccccc1)NC(=O)[C@@H](CC(C)C)NC(=O)[C@H](N)CCCNC(=N)N)C(C)C)C(C)C)C(=O)N[C@H](C)C(=O)N[C@H](CCCCN)C(=O)N[C@H](CCCNC(=N)N)C(=O)N[C@@H](C(=O)N[C@H](Cc1c[nH]c2ccccc12)C(=O)N[C@H](CCCCN)C(N)=O)[C@H](C)CC [D-AP19] (H-[dR][dL][dF][dR][dR][dV][dK][dK][dV][dA]G[dK][dI][dA][dK][dR][dI][dW][dK]-NH2)	7.81(7.81) µg/ml	7.81(7.81) µg/ml	7.81(7.81) µg/ml	7.81(7.81) µg/ml	15.63(15.63) µg/ml	15.63(15.63) µg/ml	7.81(7.81) µg/ml	7.81(7.81) µg/ml	15.63(15.63) µg/ml	15.63(15.63) µg/ml	7.81(7.81) µg/ml	7.81(7.81) µg/ml	15.63(15.63) µg/ml	15.63(15.63) µg/ml	62.5(62.5) µg/ml	62.5(62.5) µg/ml	15.63(15.63) µg/ml	15.63(15.63) µg/ml	7.81(7.81) µg/ml	7.81(7.81) µg/ml	MBC, control [4]: 7.81(7.81) µg/ml; MIC, control [4]: 7.81(7.81) µg/ml; MBC in the presence of pepsin ([4]; 37 °C, 1 h): 15.63(15.63) µg/ml; MIC in the presence of pepsin ([4]; 37 °C, 1 h): 15.63(15.63) µg/ml; MBC in the presence of proteinase K [4, 15]: 7.81(7.81) µg/ml; MIC in the presence of proteinase K [4, 15]: 7.81(7.81) µg/ml; MBC in the presence of trypsin [4, 16]: 7.81(7.81) µg/ml; MIC in the presence of trypsin [4, 16]: 7.81(7.81) µg/ml; MBC in the presence of human plasma [5]: 31.25(31.25) µg/ml; MIC in the presence of human plasma [5]: 31.25(31.25) µg/ml
RLFRRVKKVAGKIAKRIWK-NH2 [AP19]	7.81(7.81) µg/ml	7.81(7.81) µg/ml	3.91(3.91) µg/ml	3.91(3.91) µg/ml	7.81(7.81) µg/ml	7.81(7.81) µg/ml	7.81(7.81) µg/ml	7.81(7.81) µg/ml	7.81(7.81) µg/ml	7.81(7.81) µg/ml	7.81(7.81) µg/ml	7.81(7.81) µg/ml	7.81(7.81) µg/ml	7.81(7.81) µg/ml	31.25(31.25) µg/ml	31.25(31.25) µg/ml	7.81(7.81) µg/ml	7.81(7.81) µg/ml	7.81(7.81) µg/ml	7.81(7.81) µg/ml	MIC [6]: 3.91 µg/mL; MIC [7]: 3.91 µg/mL; MIC [8]: 1.95 µg/mL; MIC [9]: 1.95 µg/mL; MIC [10]: 15.63 µg/mL; MIC [11]: 3.91 µg/mL; MIC [12]: 7.81 µg/mL; MIC [13]: 7.81 µg/mL; MIC [14]: 3.91 µg/mL; MBC, control [4]: 7.81(7.81) µg/ml; MIC, control [4]: 7.81(7.81) µg/ml; MBC in the presence of pepsin ([4]; 37 °C, 1 h): 31.25(31.25) µg/ml; MIC in the presence of pepsin ([4]; 37 °C, 1 h): 31.25(31.25) µg/ml; MBC in the presence of human plasma [5]: 250(250) µg/ml; MIC in the presence of human plasma [5]: 250(250) µg/ml
